pIC50: −log10 of the molar value. Calls of active or inactive are those of the source. The calls are words filed in the database; no cut-off is given here.

The results in this text go back to ChEMBL document CHEMBL3856256, “The discovery and preclinical characterization of 6-chloro-N-(2-(4,4-difluoropiperidin-1-yl)-2-(2-(trifluoromethyl)pyrimidin-5-yl)ethyl)quinoline-5-carboxamide based P2X7 antagonists” (Bioorg Med Chem Lett, 2016).

Data set [1] relates to Mus musculus. Nature of the data set: Antiarthritic activity in DBA mouse assessed as decrease in collagen/CFA-induced arthritic score at 0.3 mg/kg, po qd administered on day 21 to 34 post collagen/CFA challenge measured on day 35. In kind it is functional, organism-based.
In data set [2] the target is T1, P2X purinoceptor 7 (Mus musculus, UniProt Q9Z1M0).
T1 sequence (Q9Z1M0 whole entry): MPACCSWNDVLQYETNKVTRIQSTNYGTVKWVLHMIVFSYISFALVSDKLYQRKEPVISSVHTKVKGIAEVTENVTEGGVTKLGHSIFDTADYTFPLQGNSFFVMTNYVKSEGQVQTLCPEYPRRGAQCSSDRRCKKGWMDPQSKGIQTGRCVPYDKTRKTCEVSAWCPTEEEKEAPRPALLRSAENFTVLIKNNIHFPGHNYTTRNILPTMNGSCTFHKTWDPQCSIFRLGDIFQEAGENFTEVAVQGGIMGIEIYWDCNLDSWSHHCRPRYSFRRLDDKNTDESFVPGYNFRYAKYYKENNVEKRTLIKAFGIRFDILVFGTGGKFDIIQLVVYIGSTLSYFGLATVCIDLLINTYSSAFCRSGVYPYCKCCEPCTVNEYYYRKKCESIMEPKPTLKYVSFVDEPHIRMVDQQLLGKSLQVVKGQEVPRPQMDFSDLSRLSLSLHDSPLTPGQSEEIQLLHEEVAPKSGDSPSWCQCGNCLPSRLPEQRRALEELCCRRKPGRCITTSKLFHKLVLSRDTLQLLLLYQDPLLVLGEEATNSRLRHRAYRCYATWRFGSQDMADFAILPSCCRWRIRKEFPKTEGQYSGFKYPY
Nature of the data set: Antagonist activity at mouse P2X7 receptor assessed as reduction in calcium flux by FLIPR calcium flux assay. In general terms: Calcium flux is commonly read through the fluorescence of an indicator in the cells.

Data set [3] concerns the target T2, P2X purinoceptor 7 (Homo sapiens, UniProt Q99572).
T2 sequence (Q99572 whole entry): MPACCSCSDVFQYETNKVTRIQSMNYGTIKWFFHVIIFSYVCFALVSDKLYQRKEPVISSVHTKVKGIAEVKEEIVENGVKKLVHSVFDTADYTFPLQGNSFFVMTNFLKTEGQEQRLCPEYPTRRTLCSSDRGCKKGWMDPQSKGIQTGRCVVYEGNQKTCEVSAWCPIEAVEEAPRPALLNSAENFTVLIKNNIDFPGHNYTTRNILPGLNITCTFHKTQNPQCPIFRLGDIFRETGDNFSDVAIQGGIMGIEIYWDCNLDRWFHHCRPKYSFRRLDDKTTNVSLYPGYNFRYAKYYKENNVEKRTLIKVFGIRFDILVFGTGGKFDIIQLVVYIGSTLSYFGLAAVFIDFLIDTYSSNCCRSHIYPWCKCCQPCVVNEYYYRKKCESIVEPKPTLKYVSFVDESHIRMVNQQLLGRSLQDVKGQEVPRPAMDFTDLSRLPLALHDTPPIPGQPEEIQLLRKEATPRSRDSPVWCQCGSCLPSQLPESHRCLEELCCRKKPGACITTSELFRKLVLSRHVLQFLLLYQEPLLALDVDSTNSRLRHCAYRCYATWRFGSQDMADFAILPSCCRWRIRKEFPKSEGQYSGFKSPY
The experiment in a line: Antagonist activity at human P2X7 receptor assessed as reduction in calcium flux by FLIPR assay.

For data set [4], the system named is Mus musculus. Nature of the data set: Ex vivo inhibition of P2X7 receptor in C57/bl6 mouse assessed as plasma concentration required to reduce LPS/BzATP-induced IL-1beta release at 50 mg/kg, po measured 4 hrs post dose. In kind it is functional, organism-based.
Data set [5] in a line: Drug uptake in C57/bl6 mouse plasma at 50 mg/kg, po after 24 hrs. The format is ADME, organism-based. Conditions: in vivo, BLD = below limit of detection.
Data set [6] has as its target T2, P2X purinoceptor 7. Nature of the data set: Antagonist activity at P2X7 receptor in human whole blood assessed as reduction in LPS/BzATP-induced IL-1beta release preincubated with LPS-stimulated cells for 30 mins followed by BzATP addition measured after 1.5 hrs by ELISA. In kind it is tissue-based. (In general: An ELISA detects its analyte on a solid surface through an enzyme-linked reagent.)

The test system of data set [7] is Mus musculus. Nature of the data set: Ex vivo inhibition of P2X7 receptor in C57/bl6 mouse assessed as plasma concentration required to reduce LPS/BzATP-induced IL-1beta release at 15 mg/kg, po measured 2 hrs post dose. In kind it is functional, organism-based.
Data set [8] addresses T1, P2X purinoceptor 7. The experiment in a line: Antagonist activity at P2X7 receptor in C57/bl6 mouse whole blood assessed as reduction in LPS/BzATP-induced IL-1beta release preincubated with LPS-stimulated cells for 30 mins followed by BzATP addition measured after 1.5 hrs by ELISA. The format is tissue-based.
The nature of data set [9]: Drug uptake in mouse brain at 50 mg/kg, po measured at 4 hrs. To be noted: read-out: Drug uptake. In kind it is ADME, organism-based.
Data set [10] is described as follows: Plasma concentration in mouse at 50 mg/kg, po measured at 4 hrs. The format is ADME, organism-based.
Data set [11] deals with Mus musculus. The experiment in a line: Ex vivo inhibition of P2X7 receptor in C57/bl6 mouse assessed as plasma concentration required to reduce LPS/BzATP-induced IL-1beta release at 50 mg/kg, po measured 8 hrs post dose. The format is functional, organism-based.
Data set [12] deals with Mus musculus. Nature of the data set: Ex vivo inhibition of P2X7 receptor in C57/bl6 mouse assessed as plasma concentration required to reduce LPS/BzATP-induced IL-1beta release at 5 mg/kg, po measured 2 hrs post dose. In kind it is functional, organism-based.
Data set [13] relates to Mus musculus. Nature of the data set: Ex vivo inhibition of P2X7 receptor in po dosed C57/bl6 mouse assessed as reduction in LPS/BzATP-induced IL-1beta release in blood measured 2 hrs post dose. In kind it is functional, organism-based.
The subject of data set [14] is Mus musculus. The experiment in a line: Ex vivo inhibition of P2X7 receptor in C57/bl6 mouse assessed as plasma concentration required to reduce LPS/BzATP-induced IL-1beta release at 50 mg/kg, po measured 2 hrs post dose. In kind it is functional, organism-based.
The subject of data set [15] is Mus musculus. Nature of the data set: Antiarthritic activity in DBA mouse assessed as decrease in collagen/CFA-induced arthritic score at 30 mg/kg, ip twice per week administered on day 21 post collagen/CFA challenge. The format is functional, organism-based.

For `C[C@@H]1C[C@H]2[C@@H]3CCC4=CC(=O)C=C[C@]4(C)[C@@]3(F)[C@@H](O)C[C@]2(C)[C@@]1(O)C(=O)CO`, the outcome in the data set on Mus musculus [1] was Active.
For `CN1CCN(c2ccc3c(C(=O)NCC(c4cnc(C(F)(F)F)nc4)N4CCC(F)(F)CC4)c(Cl)ccc3n2)CC1` (configuration not stated), the pIC50 (usually the negative decadic logarithm of the IC50, by convention in mol/L) on P2X purinoceptor 7 [2] is 6.31; at P2X purinoceptor 7 [3] it was 7.07.
For `O=C(NCC(c1cnc(C(F)(F)F)nc1)N1CCC(F)(F)CC1)c1c(Cl)ccc2nc(N3CC[C@@H](O)C3)ccc12` (some centres not stated), the Cp with Mus musculus [4] is 11.7 µM; in data set [5] it was “Bld”; with Mus musculus [7], 8.9 µM; in the data set on Mus musculus [11], 4 µM; in the data set on Mus musculus [12] it was 1.6 µM; in the data set with Mus musculus [14] it was 23.4 µM. Moreover, the negative-log IC50 (pIC50) is 7.06 on P2X purinoceptor 7 [6], 6.50 at P2X purinoceptor 7 [8], 7.10 at P2X purinoceptor 7 [2] and 7.46 at P2X purinoceptor 7 [3]. Besides, the concentration at 4 h came to 0.021 µg/mL in data set [9] and 6.42 µg/mL in data set [10]. For the same compound, the inhibition entry in the data set with Mus musculus [13] is “Dose-dependent effect”.
Take `Nc1ccc2c(C(=O)NCC(c3cnc(C(F)(F)F)nc3)N3CCC(F)(F)CC3)c(Cl)ccc2n1` (configuration not stated): the negative logarithm of the IC50 (pIC50) at P2X purinoceptor 7 [2] was 5.96; at P2X purinoceptor 7 [3], 8.05.
As for `O=C(NCC(c1cnc(C(F)(F)F)nc1)N1CCC(F)(F)CC1)c1c(Cl)ccc2nc(N3CCOCC3)ccc12` (configuration not stated), the pIC50 on P2X purinoceptor 7 [6] was 6.42; on P2X purinoceptor 7 [8], 6.20; on P2X purinoceptor 7 [2] it was 6.99; at P2X purinoceptor 7 [3] it was 7.60.
Take `O=C(NCC(c1cnc(C(F)(F)F)nc1)N1CCC(F)(F)CC1)c1c(Cl)ccc2nc(NCCO)ccc12` (configuration not stated): the pIC50 on P2X purinoceptor 7 [3] was 7.11.
With `CN(Cc1cnc2nc(N)nc(N)c2n1)c1ccc(C(=O)N[C@@H](CCC(=O)O)C(=O)O)cc1`, the outcome in the data set on Mus musculus [15] was Active.
`O=C(NCC(c1cnc(C(F)(F)F)nc1)N1CCC(F)(F)CC1)c1c(Cl)ccc2nc(N3CCC(O)CC3)ccc12` (configuration not stated): the pIC50 at P2X purinoceptor 7 [3] is 6.92.
With `CNc1ccc2c(C(=O)NCC(c3cnc(C(F)(F)F)nc3)N3CCC(F)(F)CC3)c(Cl)ccc2n1` (configuration not stated), the figures for the pIC50 at P2X purinoceptor 7 [2] and on P2X purinoceptor 7 [3] were 6.52 and 7.09, respectively.
Regarding `O=C(NCC(c1cnc(C(F)(F)F)nc1)N1CCC(F)(F)CC1)c1c(Cl)ccc2nc(N3CC[C@H](O)C3)ccc12` (some centres not stated), on P2X purinoceptor 7 [3], the negative logarithm of the IC50 (pIC50) is 6.82.
Take `O=C(NCC(c1cnc(C(F)(F)F)nc1)N1CCC(F)(F)CC1)c1c(Cl)ccc2nc(NC3CC3)ccc12` (configuration not stated): the pIC50 at P2X purinoceptor 7 [6] is 6.85; on P2X purinoceptor 7 [8] it was 6.20; on P2X purinoceptor 7 [2], 6.91; at P2X purinoceptor 7 [3] it was 7.19.
